Tests used:
[1] = in water, alcohol, and ether; cited from earlier work
[2] = system: rat model of cerebral ischemia; test: Rat model of cerebral ischemia: measurement of infarct damage (TTC staining); assay type: in vivo, Male Wistar rats; details: for Infarct Volume (mean): post-ischemia PLP iv, 24 hours after ischemia, control group 37.74%
Protocol: (§1) Male Wistar rats (250-300 g) were housed in the animal facility for a period of 12 days and given food and water ab libitum. Animals were randomly assigned to groups (n=8/group) of a) control group b) post-ischemia PLP treatment 10 mg/kg c) post-ischemia PLP treatment […] and d) post-ischemia PLP treatment 40 mg/kg.
(§2) The rats of each group were anaesthetized to surgical depth initially with 3% halothane, and maintained with 1.5% halothane in a 70% N2O/30% O2 (vol./vol.) mixture. Animal core temperature was maintained at approx 37° C. using a heating pad and an overhead lamp. Temperature was measured with a rectal thermometer.
(§3) A midline longitudinal incision of approx 2.0 cm was made in the cervical area. Both common carotid arteries (CCA) were dissected from the surrounding tissue and both the right internal carotid artery (ICA) and the right external carotid artery (ECA) were exposed to a maximal length. Branches of the right ECA will be occluded with electro-coagulation and the distal portion ligated. The right CCA and ICA were occluded by temporary clamping, after which the distal end of the ECA was cut to allow catheter insertion. A loose 5.0 silk suture was tied around the proximal right ECA. A PE-50 catheter [Becton-Dickinson, N.J., USA] (0.3 mm O.D at the tip of the catheter and O.D. 0.97 in the catheter body) was attached to a […] filled with 0.5 ml bovine alpha-thrombin (Thrombostat, Parke-Davis).
(§4) The catheter was introduced into the ICA from the ECA and CCA via a small puncture and the silk suture tied around the ECA to prevent bleeding and dislodgement. This was followed by the removal of vascular clips from the ICA and CCA. 10 ul of blood was withdrawn into the catheter and kept in place for 15 minutes for formation of a thrombin clot. Subsequently 17 mm of the catheter (calculated from the puncture site) was gently advanced through the ECA and extra-cranial portion of the ICA to approximately 2 mm from the origin of the middle cerebral artery. After temporary occlusion of the CCAs bilaterally to slow blood flow, the clot was introduced into the ICA. The clip of the contralateral CCA was removed five minutes later and the catheter was removed 10 minutes after the clot introduction. The ipsilateral ICA was then ligated prior to the removal of the clip on the right CCA, 15 minutes after clot injection. The incision was then sutured and the animals allowed to recover from anesthesia whereupon they were given free access to food & water.
The infarcted brain tissue in the right MCA territory was differentiated using the 2,3,5-triphenyltetrazolium chloride (TTC) staining method. The rats were perfused transcardially with 120 ml 0.9% normal saline under deep anaesthesia, 24 hours after ischemia. The brain was then removed and cooled in ice-cold saline for 5 minutes after which it was dissected in the coronal plane at 2 mm intervals using a rat brain matrix and stored in 10% buffered formalin for fixing. The stained sections were colour scanned within seven days. The 2 mm thick coronal sections were placed directly on the scanning screen and scanned from rostral to caudal ends, with attention paid to soaking up formalin to prevent shadows, and the use of a black background.
Image contrast and brightness was adjusted with Photoshop 4.0; measurements were made by manually outlining the margins of infarct areas in each section. The total volume of infarction was determined by integrating the […] of the eight chosen sections. Values were corrected for any brain edema.
(§5) Control animals were given 3 mL saline (iv) at 2 hours following cerebral ischemia. The pre-ischemia treatment group was given PLP (10 mg/kg, iv in 3 mL) over 30 minutes 1 hour prior to ischemic insult. The post-ischemia groups received PLP at […] iv at 2 hours following cerebral ischemia.
All data was expressed as mean±SD. […]

[3] = system: rat model of cerebral ischemia; test: Rat model of cerebral ischemia: seizures, hemorrhage and mortality; details: for mortality (number of animals): n=8/group, 2 in control group
[4] = system: rat model of cerebral ischemia; test: Rat model of cerebral ischemia: neurological deficit evaluation (neurobehavioral scores); assay type: in vivo, Male Wistar rats; details: scale 0-4, evaluation at 2 and 24 hours after thrombus
Protocol: as §1, §2, §3, §4
Neurological deficit evaluation was conducted at 2 and 24 hours after injection of thrombus. The neurological findings were scored on a four-point grade scale: no observable deficit—0; forelimb flexion—1; forelimb flexion and decreased resistance to lateral push—2; forelimb flexion, decreased lateral push resistance and unilateral circling in three successive trials—3. A score of 4 was given to animals with a score of 3 plus decreased consciousness.
as §5
All data was expressed as mean±SD. Two-tailed paired Students t-tests were used to compare differences between values obtained before and after treatment. Statistical analysis of more than two groups of animals were performed with ANOVA, with subsequent individual comparisons by Scheffe's test. Differences were considered significant at […].

For `Cc1ncc(COP(=O)(O)O)c(C=O)c1O` [PLP, 3-hydroxy-2-methyl-5-[(phosphonooxy)methyl]-4-pyridine-carboxaldehyde], the solubility [1] is given as “essentially insoluble”, the “Infarct Volume (mean)” value ([2]; 10 mg/kg treatment group) is given as 28.25%, and the “Infarct Volume (mean)” value ([2]; 20 mg/kg treatment group) is given as 27.4%,. For the same compound, the “infarct reduction, statistical significance” value ([2]; 40 mg/kg dose) was “statistically significant”, the “Infarct Volume (mean)” value ([2]; 40 mg/kg treatment group) was 19.3%, and the “therapeutic effect on infarct size and neurobehavioral activity” value ([2]; 10, 20, 40 mg/kg) was “dose-dependant therapeutic effect”. The “anti-ischemic effect in the rat model of ischemia and reperfusion injury” value ([2]; overall conclusion) was “demonstrates anti-ischemic effects and benefits against ischemia reperfusion injury”, the “mortality (number of animals)” value ([3]; 10 mg/kg group) was 3 and the “mortality (number of animals)” value ([3]; 20 mg/kg group) was 1. For the same compound, the “mortality (number of animals)” value ([3]; 40 mg/kg group) was 0, the number of seizures ([3]; the three groups (10, 20, 40 mg/kg)) was “no difference” and the risk of hemorrhage ([3]; with higher doses) was “did not increase”. The “Neurobehavioral score, final (decreased to)” value ([4]; 10 mg/kg group) was 3, the “Neurobehavioral score, initial (decreased from)” value ([4]; 10 mg/kg group) was 3.6 and the “Neurobehavioral score, final (decreased to)” value ([4]; 20 mg/kg group) was 3. The “Neurobehavioral score, initial (decreased from)” value ([4]; 20 mg/kg group) was 3.8, the “Neurobehavioral score, final (decreased to)” value ([4]; 40 mg/kg group, p<0.001) was 1.9 and the “Neurobehavioral score, initial (decreased from)” value ([4]; 40 mg/kg group, p<0.001) was 3.8.
